Measured values from publication PMC3334918, “Mutagenesis and Functional Studies with Succinate Dehydrogenase Inhibitors in the Wheat Pathogen Mycosphaerella graminicola” (PLoS ONE, 2012).

What was measured:
[1] = system: M. graminicola WT (IPO323); experiment: microbe, parasite or virus in culture; assay type: cell-based, Mycosphaerella graminicola; conditions: Zymoseptoria tritici; WT (IPO323), liquid culture growth, ±S.E. (triplicate); read-out: IC50 in vivo
Procedure: (§1) To explore the sensitivity profiles conferred by amino acid substitutions at the cellular and mitochondrial level, we determined sensitivity towards 4 different compounds for 26 of the identified substitution types both in vivo using liquid culture growth (AE media) and in vitro using purified mitochondria and the succinate: Q0/DCPIP activity test (Table 3). […] Resistance factors (RF) were determined as the ratio IC50mutant/IC50WT. […] Qp site mutations are well known to influence SDH enzyme activity and stability upon catalysis, [13], [38], [41].
(§2) Conidial cells were collected from 4 day old V8 agar plates (cultured at 18°C in the dark) using liquid AE and a cell spreader. Cell density was determined and cells re-suspended to a concentration of 5×10^5 cells ml^−1 in AE media. Sterile 96 wells microtiter plates with lids (Costar) were inoculated with 198 µl of this cell suspension (10^5 cells per well) and 2 µl of inhibitor (100× in DMSO). Final inhibitor concentrations were between 0.95 nM and 1 mM with uniform 4× dilution factor steps (11 inhibitor concentrations+1 DMSO control). Plates were incubated for 6 days at 19°C in the dark before cells were re-suspended and measured for growth (OD600 nm). IC50 values were determined by non linear curve fitting on the basis of measured OD values versus log inhibitor concentrations (GraphPad Prism 5.0 software).

[2] = biological target: succinate dehydrogenase (SDH), WT (IPO323) (Zymoseptoria tritici (Mycosphaerella graminicola), UniProt F9X9V6+F9XG45+F9XH52); experiment: in vitro succinate: Q0/DCPIP activity test, purified mitochondria; assay type: biochemical; conditions: read-out: IC50 in vitro, ±S.E. (triplicate)
succinate dehydrogenase (SDH), WT (IPO323), sequence (F9XG45 entry or part of it): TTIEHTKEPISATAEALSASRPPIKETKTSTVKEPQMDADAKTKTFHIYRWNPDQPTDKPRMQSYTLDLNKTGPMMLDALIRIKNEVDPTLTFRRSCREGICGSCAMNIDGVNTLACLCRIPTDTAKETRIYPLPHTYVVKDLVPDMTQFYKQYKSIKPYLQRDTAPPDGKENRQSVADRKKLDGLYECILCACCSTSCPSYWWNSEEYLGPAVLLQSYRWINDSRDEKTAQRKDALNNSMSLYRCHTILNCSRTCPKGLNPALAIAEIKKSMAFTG
succinate dehydrogenase (SDH), WT (IPO323), sequence (F9X9V6 entry or part of it): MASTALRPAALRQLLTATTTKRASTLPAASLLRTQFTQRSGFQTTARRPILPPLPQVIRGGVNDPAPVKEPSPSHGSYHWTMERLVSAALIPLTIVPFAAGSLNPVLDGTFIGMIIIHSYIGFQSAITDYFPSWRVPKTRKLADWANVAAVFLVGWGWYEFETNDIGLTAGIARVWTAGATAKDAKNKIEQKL
succinate dehydrogenase (SDH), WT (IPO323), sequence (F9XH52 entry or part of it): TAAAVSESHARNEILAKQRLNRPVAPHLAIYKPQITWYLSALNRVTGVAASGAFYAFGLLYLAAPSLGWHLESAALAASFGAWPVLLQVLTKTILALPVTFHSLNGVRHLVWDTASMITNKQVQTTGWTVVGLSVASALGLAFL
Procedure: as §1
Strains were grown in 1 liter TSM40 units. Cultures were inoculated at 0.05 OD600 nm and grown on a reciprocal shaker (110 rpm, 22°C) for 5 days. Cells were harvested by vacuum filtration and disrupted in liquid nitrogen using a mortar and pestle. Resultant powder was re-suspended to 10% w/v in mitochondrial extraction buffer (10 mM KHPO4 pH7.2; 10 mM KCl, 10 mM MgCl2, 0.5 M sucrose, 0.2 mM EDTA, 2 mM PMSF). Extract was clarified by centrifugation (5,000 g, 4°C for 10 minutes, 2 times), intact mitochondria were then pelleted at 10,000 g for 20 minutes at 4°C. […] This volume was transferred to conical 1.5 ml tubes and re-centrifuged, 10,000 g for 10 minutes at 4°C. […] Mitochondrial suspensions were brought to a final concentration of 10 mg ml^−1 in extraction buffer and stored at −80°C until used.
Mitochondrial suspensions were incubated at 30°C for 30 minutes in extraction buffer supplemented with 10 mM succinate prior to enzymatic measurements.
A reaction plate was equilibrated for 10 minutes at 30°C before starting the reaction. DCPIP reduction was conducted at 30°C and monitored at 595 nm using a HTS7000 microtiterplate reader (Perkin Elmer). For calculations a molecular extinction coefficient of ε = 17 mM^−1 cm^−1 was used.
Inhibitor concentrations ranged between 1 mM and 0.95 nM with uniform 4× dilution factor steps (11 inhibitor concentrations+DMSO control). 96 wells plates were pre equilibrated at reaction temperature (30°C) for 10 minutes before the reactions were started by the addition of 5 µl preactivated M. graminicola mitochondrial suspension. Calculated absorbance slopes (OD/hour) were used for IC50 calculations using Graphpad Prism 5.0 software non linear curve fitting against log inhibitor concentrations.

[3] = examination of supplemented AE agar plates for precipitate; assay type: physicochemical; conditions: AE agar plates supplemented with 150 µM (5×MSC), developed over time
[4] = system: M. graminicola isolate IPO323; experiment: UV mutagenesis and selection of resistant colonies on carboxamide amended AE agar; assay type: cell-based, Mycosphaerella graminicola
Procedure: (§3) Selection plates were produced after adding 1% of a 100× DMSO solution of the active ingredients to pre-melted AE-agar.
Cells were harvested from 4 days old V8 agar plates and conidial cells were suspended in liquid AE. 10^7 cells were spread onto carboxamide amended AE agar plates and mutagenized using UV Stratalinker 2400 (Stratagene) with 75 mJ cm^−2 or 50 mJ cm^−2. […] Selection plates were incubated in the dark at 20°C for 14 days. Visible colonies were picked from the primary selection plate and re-grown on fresh selection media for 2 additional weeks under the same conditions.

[5] = system: wild type IPO323 M. graminicola strain; assay type: cell-based, Mycosphaerella graminicola; conditions: minimal concentration to fully inhibit growth of WT IPO323, AE agar, 10^7 cells, 2 weeks at 20°C in the dark
Text: as §3

[6] = system: M. graminicola strain Cbx28 (SDHB_H267Y); experiment: in vivo sensitivity, liquid culture growth (AE media); assay type: cell-based, Mycosphaerella graminicola; conditions: M. graminicola SDHB_H267Y; compound A: data not shown
Procedure: as §1, §2

| Structure (SMILES) | IC50 [1] [nM] | IC50 [2] [nM] | precipitation in the media [3] | Frequency (of resistance development) ([4]; selection at MSC, UV treatment 50 mJ cm^−2) | Frequency (of resistance development) ([4]; selection at MSC, UV treatment 75 mJ cm^−2) | Frequency (of resistance development) ([4]; selection at […] MSC, UV treatment 50 mJ cm^−2) | Frequency (of resistance development) ([4]; selection at […] MSC, UV treatment 75 mJ cm^−2) | Minimal selective concentration (MSC) [5] | sensitivity / control of the SDHB_H267Y mutant compared to the WT [6] |
| --- | --- | --- | --- | --- | --- | --- | --- | --- | --- |
| O=C(Nc1ccccc1-c1ccc(Cl)cc1)c1cccnc1Cl [Boscalid] | 455 ± 47 | 60 ± 1.8 | white precipitate | – | – | – | – | – | – |
| CC(C)C1C2CCC1c1c(NC(=O)c3cn(C)cc3C(F)(F)F)cccc12 (centres unmarked) [compound A] | – | – | – | 1.4E-07 | 2.1E-07 | 2.1E-07 | 1.9E-07 | compound A 100 µM (MSC) | better control |
| CC1=C(C(=O)Nc2ccccc2)SCCO1 [Carboxin] | 6470 ± 1080 | 1160 ± 102 | – | – | – | – | – | – | – |
| O=C(NCCc1ncc(C(F)(F)F)cc1Cl)c1ccccc1C(F)(F)F [Fluopyram] | 584 ± 100 | 44 ± 2.2 | – | – | – | – | – | – | hypersensitivity |
